Here are results for eleven compounds from patent US12098145B2 (Libra Therapeutics, Inc., priority 2022, dated 2024).

For one test, the target named is T1, TRPML1 (Homo sapiens, UniProt Q9GZU1).
T1 construct: expressed in transfected cells; host or cells: HEK T-REx cells stably expressing GCaMP6f and TRPML1
As to the kind of experiment: Cellular TRPML1 assay (FLIPR, GCaMP6f calcium read-out). The test is classed as cell-based. Particulars: HEKT-REx/GCaMP6f/TRPML1 cells, FLIPR TETRA, kinetic response over 300 seconds; read-out: TRPML1 FLIPR pEC50 (converted). The method in brief:
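Read-out is GCaMP6f fluorescence over 300 s after compound addition in Ca2+-free Tyrode's buffer, final DMSO 0.5%, on FLIPR Tetra. Cells are HEK T-REx stably co-expressing the indicator and TRPML1, plated 24 h earlier in Optimem + 0.5% FBS and pre-incubated ~10 min at room temperature.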

The next test relates to TFEB. As to the kind of experiment: TFEB translocation assay (TFEB reporter in U2OS cells, imaging). The class given is cell-based. The settings on record: Homo sapiens; U2OS cell line with TFEB reporter, 2 hours incubation, nucleus to cytoplasm ratio, normalized to Torin-1; read-out: TFEB Translocation pEC50 (converted). As to the method:
Example B: TFEB Translocation Assay
Reporter TFEB: the reporter is fused to a sequence of monomeric red fluorescent protein.
The reporter TFEB have been stably expressed in U2OS cell line and used as read-out.
Experiments were performed in 384 MTP well format. Cells were seeded in 384-w at a density of 4000 cells/well in 20 μl/well complete growth medium without antibiotics. Twenty-four hours later, cells were treated with compounds and incubated for further 2 hours. Then the cells were imaged and assayed for the response to various compounds using the reporter for TFEB expressed in the cells as readout.
The experiments were performed in a 384-well format according to the following procedure: • 24 h after seeding, cell culture medium was carefully removed and replaced with 20 μl of Opti-MEM (30′ incubation at 37° C. before compound addition) • Then, cells were incubated with compounds diluted in Opti-MEM+0.015% Tween 80 at the desired concentration, with the reference molecule (agonist) Torin-1 at a top concentration of 1 μM (max signal), and with the other reference molecule (agonist) MLSA-5 at top concentration of 20 μM for 2 hours at 37° C. and 5% CO2. The final percentage of DMSO was 0.5% in all the conditions. • Staining of the nuclei was obtained by incubating the cells with 24 μM/well of Hoechst 3342 in standard Tyrode's buffer for 15 min at RT • Then the cells were fixed with PFA 4% for 30 min at RT • After three washes with standard Tyrode's buffer, samples were acquired by recording two fluorescence emission channels (DS-red and blue) at 20× magnification and with at least 3 fields of view per well in an Operetta CLS microscope (PerkinElmer). • Image analysis was performed by using Harmony software (PerkinElmer). The image analysis involved the following steps: flat-field illumination correction, nuclei segmentation, cytoplasm segmentation and calculation of intensity fluorescence in the cytosol and nuclei compartments. Measurements of signal intensity ratio (nucleus to cytoplasm) was used to obtain information on the effects of compounds on the TFEB translocation. • Data from image analysis measurements were finally loaded and analyzed for normalization and fitting procedures in Genedata Screener© software. Data Analysis
Feature: Mean translocation ratio (mean/well)
Data normalization: Stimulator—Neutral control
The GeneData Screener method we have used, normalizes the median of the Stimulator control wells (Torin-1) to 100% and the median of the Neutral control wells (DMSO) to 0% Activity[%]=100*(x−<Min>)/(<“Max”>−<Min>)

T1 sequence (Q9GZU1 whole entry): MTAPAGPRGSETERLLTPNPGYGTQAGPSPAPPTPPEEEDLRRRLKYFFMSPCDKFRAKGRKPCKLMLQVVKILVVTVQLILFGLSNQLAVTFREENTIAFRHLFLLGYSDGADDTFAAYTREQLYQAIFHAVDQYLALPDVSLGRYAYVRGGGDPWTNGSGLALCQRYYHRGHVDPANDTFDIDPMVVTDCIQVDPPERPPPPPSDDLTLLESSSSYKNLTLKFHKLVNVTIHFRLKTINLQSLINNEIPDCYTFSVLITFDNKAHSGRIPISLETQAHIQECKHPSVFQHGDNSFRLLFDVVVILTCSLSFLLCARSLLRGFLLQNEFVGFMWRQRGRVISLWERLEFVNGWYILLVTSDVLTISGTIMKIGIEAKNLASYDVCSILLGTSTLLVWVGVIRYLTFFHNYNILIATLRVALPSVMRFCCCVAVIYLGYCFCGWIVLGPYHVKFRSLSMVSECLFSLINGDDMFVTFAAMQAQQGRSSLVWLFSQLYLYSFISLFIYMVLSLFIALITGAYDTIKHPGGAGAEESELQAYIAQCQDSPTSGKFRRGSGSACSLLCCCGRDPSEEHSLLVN

In the case of `O=C(Nc1ccc(O[C@@H]2C[C@@H]3C[C@@H]3C2)c(F)c1)c1nc(N2CC3CC3C2)oc1CC(F)(F)F` (stereo partly drawn) [Example 156, 2-(3-azabicyclo[3.1.0]hexan-3-yl)-N-(4-(cis-bicyclo[3.1.0]hexan-3-yloxy)-3-fluorophenyl)-5-(2,2,2-trifluoroethyl)oxazole-4-carboxamide], the EC50 at TRPML1 and in the test with TFEB was 0.01 to 1 µM each time.

With `CCC1(CC)CN(c2nc(C(=O)Nc3cc(F)c(OC4CC5CC(C5)C4)c(F)c3)c(CCF)o2)C1` (stereo not drawn) [Example 286, N-(4-(bicyclo[3.1.1]heptan-3-yloxy)-3,5-difluorophenyl)-2-(3,3-diethylazetidin-1-yl)-5-(2-fluoroethyl)oxazole-4-carboxamide], the EC50 on TRPML1 and in the test with TFEB was 0.01 to 1 µM throughout.

As to `CCc1oc(N2CC(CC)(OC)C2)nc1C(=O)Nc1ccc(OC2CC3CC(C3)C2)c(F)c1` (stereo not drawn) [Example 228, N-(4-(bicyclo[3.1.1]heptan-3-yloxy)-3-fluorophenyl)-5-ethyl-2-(3-ethyl-3-methoxyazetidin-1-yl)oxazole-4-carboxamide], the EC50 on TRPML1 and with TFEB was 0.01 to 1 µM in each case.

For the compound `O=C(Nc1cc(F)c(O[C@@H]2C[C@@H]3C[C@@H]3C2)c(F)c1)c1nc(N2CCCCCC2)oc1CC(F)(F)F` [Example 174, 2-(azepan-1-yl)-N-(4-(cis-bicyclo[3.1.0]hexan-3-yloxy)-3,5-difluorophenyl)-5-(2,2,2-trifluoroethyl)oxazole-4-carboxamide], the EC50 at TRPML1 and in the test on TFEB was 0.01 to 1 µM each time.

Turning to `CCc1oc(N2CC(C)(OC)C2)nc1C(=O)Nc1cc(C)c(OC2CC3C[C@H]3C2)c(F)c1` (stereo partly drawn) [Example 226, N-(4-(cis-bicyclo[3.1.0]hexan-3-yloxy)-3-fluoro-5-methylphenyl)-5-ethyl-2-(3-methoxy-3-methylazetidin-1-yl)oxazole-4-carboxamide], the EC50 in the test with TFEB was 0.01 to 1 µM.

In the case of `O=C(Nc1cc(F)c(OC2CC3C[C@H]3C2)c(F)c1)c1nc(N2CC3(CCOC3)C2)oc1CC(F)(F)F` (stereo partly drawn) [Example 189, N-(4-(cis-bicyclo[3.1.0]hexan-3-yloxy)-3,5-difluorophenyl)-2-(6-oxa-2-azaspiro[3.4]octan-2-yl)-5-(2,2,2-trifluoroethyl)oxazole-4-carboxamide], the EC50 in the test with TFEB was 0.01 to 1 µM.

`O=C(Nc1cc(F)c(OC2CC3C[C@@H]3C2)c(F)c1)c1nc(N2CC3(CCOCC3)C2)oc1CC(F)(F)F` (stereo partly drawn) [Example 188, N-(4-(cis-bicyclo[3.1.0]hexan-3-yloxy)-3,5-difluorophenyl)-2-(7-oxa-2-azaspiro[3.5]nonan-2-yl)-5-(2,2,2-trifluoroethyl)oxazole-4-carboxamide]: the EC50 in the test on TFEB was 0.01 to 1 µM.

On to `CCc1oc(N2CCCC2)nc1C(=O)Nc1cc(F)c(OC2CC3C[C@H]3C2)c(Cl)c1` (stereo partly drawn) [Example 222, N-(4-(cis-bicyclo[3.1.0]hexan-3-yloxy)-3-chloro-5-fluorophenyl)-5-ethyl-2-(pyrrolidin-1-yl)oxazole-4-carboxamide], for which the EC50 with TFEB is 0.01 to 1 µM.

As to `CCc1oc(N2CC(CC)(CO)C2)nc1C(=O)Nc1cc(F)c(OC2CC3C[C@H]3C2)c(Cl)c1` (stereo partly drawn) [Example 220, N-(4-(cis-bicyclo[3.1.0]hexan-3-yloxy)-3-chloro-5-fluorophenyl)-5-ethyl-2-(3-ethyl-3-(hydroxymethyl)azetidin-1-yl)oxazole-4-carboxamide], the EC50 in the test on TFEB was 0.01 to 1 µM.

Consider `CCCc1oc(N2CCCC2)nc1C(=O)Nc1cc(F)c(OC2CC3C[C@H]3C2)c(F)c1` (stereo partly drawn) [Example 274, N-(4-(cis-bicyclo[3.1.0]hexan-3-yloxy)-3,5-difluorophenyl)-5-propyl-2-(pyrrolidin-1-yl)oxazole-4-carboxamide], for which the EC50 in the test with TFEB was 0.01 to 1 µM.

`O=C(Nc1ccc(OCC2CCCC2(F)F)c(F)c1)c1nc(N2CCCC2)oc1CC(F)(F)F` (stereo not drawn) [Example 53, N-{4-[(2,2-difluorocyclopentyl)methoxy]-3-fluorophenyl}-2-(pyrrolidin-1-yl)-5-(2,2,2-trifluoroethyl)oxazole-4-carboxamide]: the EC50 at TRPML1 was 1 to 10 µM.
